Source: publication PMC9606270, “First direct evidence for direct cell-membrane penetrations of polycationic homopoly(amino acid)s produced by bacteria” (Communications Biology, 2022)

B1: Cre: recombinant Cre recombinase (38 kDa), unconjugated control (protein, UniProt P06956 1-343, looked up)
Recombinase cre: MSNLLTVHQNLPALPVDATSDEVRKNLMDMFRDRQAFSEHTWKMLLSVCRSWAAWCKLNNRKWFPAEPEDVRDYLLYLQARGLAVKTIQQHLGQLNMLHRRSGLPRPSDSNAVSLVMRRIRKENVDAGERAKQALAFERTDFDQVRSLMENSDRCQDIRNLAFLGIAYNTLLRIAEIARIRVKDISRTDGGRMLIHIGRTKTLVSTAGVEKALSLGVTKLVERWISVSGVADDPNNYLFCRVRKNGVAAPSATSQLSTRALEGIFEATHRLIYGAKDDSGQRYLAWSGHSARVGAARDMARAGVSIPEIMQAGGWTNVNIVMNYIRNLDSETGAMVRLLEDGD
B2: 16: Cre recombinase (38 kDa) conjugated with 8 (conjugate, UniProt P06956 1-343, looked up)
Recombinase cre: B1 Recombinase cre
modifications: conjugated to ε-poly-α-lysine polymer 8

Key:
[1] = cited from earlier work
Text: To address the growing worldwide demand for CPPs, structurally and functionally distinct CPPs are required to circumvent the canonical CPP drawbacks such as cytotoxicity. This study, therefore, focused on the cytotoxicities of ε-PαL (1) against mammalian cells, while the nontoxicity of 1 in vivo has also been reported so that ε-PαL is used as a natural food preservative in several countries[1],[42]. However, the in vitro cytotoxicity of 1 in other cell lines has remained unclear. We therefore performed the MTT cell viability assay with 1 in K562, HepG2, and HEK293T cells in addition to HeLa ce ...

peptidases/proteinases = details: due to isopeptide-bond linkages; cited from earlier work
Text: In this context, a bacterium-origin polycationic polymer, ε-PαL (1) (Fig. 1a), has garnered increasing interest in recent years as an alternative to canonical cationic CPPs. […] However, the cati ... || Practical intracellular delivery of biological macromolecules (biopharmaceuticals) would dramatically transform therapeutic approaches and foster experimental breakthroughs because numerous potential drug targets (cytokines, growth factors, and signal transduction proteins) are in the cell interior[44]. CPPs are among the most promising strategies, and CPP-driven technology currently revolves around natural and synthetic eupeptides. Poly-L/D-arginine[13]–[15], poly-L-histidine[45], and poly-L/D-lysine[46], which were chemically or genetically produced, have been used as CPPs. To enable the del ...

[2] = cited from earlier work; remark: listed apart in the source
Text: (§1) In this context, a bacterium-origin polycationic polymer, ε-PαL (1) (Fig. 1a), has garnered increasing interest in recent years as an alternative to canonical cationic CPPs. […] However, the cati ...

mammalian cells = details: cited from earlier work
Text: as §1

HeLa cells = details: cited from earlier work
Text: page 5: Response to reviewers … Reviewer #1: Thank you so much for your valuable comments concerning our original manuscript. Your comment #1: The manuscript is well prepared and written except for the cytotoxicity of these polycationic isopeptides. […] However, we did n ...

[3] = tested on: Cre/loxP recombination in HEK293T cells; assay: Cre/loxP recombination by intracellularly delivered Cre (reporter plasmid pmKO_loxP_mAG); type: cell-based, human; details: HEK293T transfected with pmKO_loxP_mAG; 50 μM, 60 min, 37°C, then 24 h culture; microscopy; mean ± s.d. (n = 3)
Text: The synthetic DNA fragment carrying two loxP sequences, one TGA stop codon, and the ampicillin resistance gene (Amp^r gene) (Supplementary Table 30) was ligated with pmKO1-MC1 digested by Bam HI and Eco RI. The resulting plasmid, pmKO_loxP, was digested with Eco RI and Hind III and ligated with the mAG gene fragment amplified by the PCR primers (pmKO1_mAG-F and pmKO1_mAG-R, Supplementary Table 29) to yield the Cre activity reporter plasmid (pmKO_loxP_mAG).
HEK293T cells were transfected with the plasmid pmKO_loxP_mAG using FuGENE Transfection (Promega) according to the manufacturer’s specifications. The cells were washed with DMEM medium and then treated with 50 µM of ε-PαL-Cre (16) at 37 °C for 60 min. The cells were then washed with PBS, followed by 100 µg ml^−1 heparin in PBS, and then two more times with PBS. Finally, fresh DMEM containing 10% FBS was added and incubated at 37 °C for 24 h to express a fluorescent protein. The live-cell imaging was captured by fluorescence microscopy (Leica DMi8).

Molecule | Proteolytic resistance (peptidases/proteinases) | Gene recombination ratio (green cells) [3] | also measured
ε-poly-L-α-lysine [Compound 1] | proteolytic resistance | – | Toxicity in vivo [1]: nontoxicity; Antimicrobial activities [2]: potent; Cytotoxicity (mammalian cells): nondetectable levels
ε-oligo-L-β-lysine [Compound 2] | resistant to peptidases/proteinases | – | Cytotoxicity in HeLa cells (HeLa cells): no cytotoxicity
B1 | – | 6.8% ± 0.1% | –
B2 | – | 65.6% ± 2.7% | –
